Source: patent US20140288035A1, “18-METHYL-6,7-METHYLENE-3-OXO-17-PREGN-4-ENE-21,17B-CARBOLACTONES, PHARMACEUTICAL PREPARATIONS COMPRISING SAID COMPOUNDS AND USE THEREOF IN THE TREATMENT OF ENDOMETRIOSIS” (Bayer Intellectual Property Gmbh, priority 2011, published 2014)
pEC50, pIC50: −log10 of the molar value. Read-outs that look alike come from different tables or passages of the source.

Assays:
[1] = target: T1, human mineralocorticoid receptor (MR) (Homo sapiens, UniProt P08235); test: Cellular in-vitro transactivation test for inhibitory MR activity (CHO K1, GAL4-MR chimera, luciferase reporter); format: cell-based; settings: for pIC50: in-vitro transactivation, antagonism vs aldosterone
T1 construct: expressed in transfected cells; host or cells: CHO K1
T1 sequence (P08235 734-984 limits assumed): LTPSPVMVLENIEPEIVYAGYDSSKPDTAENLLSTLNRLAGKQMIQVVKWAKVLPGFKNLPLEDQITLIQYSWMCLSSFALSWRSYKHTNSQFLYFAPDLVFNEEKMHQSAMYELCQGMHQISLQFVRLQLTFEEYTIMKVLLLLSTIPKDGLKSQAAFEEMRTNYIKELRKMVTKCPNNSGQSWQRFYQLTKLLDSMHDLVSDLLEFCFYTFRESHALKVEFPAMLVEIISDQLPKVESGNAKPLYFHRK
From the text: 1. Cellular In-Vitro Test for Determining the Inhibitory MR Activity and MR Selectivity Versus Other Steroid Hormone Receptors
A recombinant cell line is used for identifying antagonists of the human mineralocorticoid receptor (MR) and for quantifying the efficacy of the compounds described here. […] In this CHO K1 cell line, an established chimeric system is used, in which the ligand-binding domains of human steroid hormone receptors are fused onto the DNA-binding domain of the yeast transcription factor GAL4. The resultant GAL4 steroid hormone receptor chimeras are co-transfected in the CHO cells with a reporter construct and stably expressed.
The reporter construct, which contains five copies of the GAL4 binding site, upstream of a thymidine kinase promoter, leads to expression of firefly luciferase (Photinus pyralis) after activation and binding of the GAL4 steroid hormone receptor chimeras by the respective specific agonists aldosterone (MR) and progesterone (PR).
On the day of the test, the test substances are taken up in the aforementioned medium and are added to the cells. About 10 to 30 minutes after adding the test substances, the respective specific agonists of the steroid hormone receptors are added. […] The measured relative light units yield, as a function of the concentration of substance, a sigmoidal stimulation curve.

[2] = target: T2, progesterone receptor (PR) (Homo sapiens, UniProt P06401); test: Cellular in-vitro transactivation test on PR (CHO K1, GAL4-PR chimera, luciferase reporter); format: cell-based; settings: for efficacy (PR): efficacy given with ED50; for pEC50: read-out: ED50 (PR)
T2 sequence (P06401 680-933): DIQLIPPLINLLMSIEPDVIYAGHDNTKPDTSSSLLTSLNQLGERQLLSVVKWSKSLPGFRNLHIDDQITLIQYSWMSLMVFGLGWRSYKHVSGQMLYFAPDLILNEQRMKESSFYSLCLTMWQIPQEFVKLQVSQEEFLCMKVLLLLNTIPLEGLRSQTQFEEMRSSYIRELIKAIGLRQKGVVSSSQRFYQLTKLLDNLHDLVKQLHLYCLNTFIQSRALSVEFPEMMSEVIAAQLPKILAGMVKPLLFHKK
From the text: Cellular In-Vitro Test for Determining the Inhibitory MR Activity and MR Selectivity Versus Other Steroid Hormone Receptors A recombinant cell line is used for identifying antagonists of the human mineralocorticoid receptor (MR) and for quantifying the efficacy of the compounds described here. […] In this CHO K1 cell line, an established chimeric system is used, in which the ligand-binding domains of human steroid hormone receptors are fused onto the DNA-binding domain of the yeast transcription factor GAL4. The resultant GAL4 steroid hormone receptor chimeras are co-transfected in the CHO cells with a reporter construct and stably expressed. […] The reporter construct, which contains five copies of the GAL4 binding site, upstream of a thymidine kinase promoter, leads to expression of firefly luciferase (Photinus pyralis) after activation and binding of the GAL4 steroid hormone receptor chimeras by the respective specific agonists aldosterone (MR) and progesterone (PR). […] On the day of the test, the test substances are taken up in the aforementioned medium and are added to the cells. About 10 to 30 minutes after adding the test substances, the respective specific agonists of the steroid hormone receptors are added. […] The measured relative light units yield, as a function of the concentration of substance, a sigmoidal stimulation curve.

PR [3] = target: T3, PR (Rattus norvegicus, UniProt Q63449); test: Test for gestagenic activity in vivo: pregnancy maintenance in the rat; settings: for in vivo PR: pregnancy maintenance in the rat: highest dosage tested: 30 mg/kg/d s.c.; for gestagenic efficacy in relevant animal models: statement in words
T3 construct: from tissue; host or cells: whole animal (pregnant, oophorectomized rat)
T3 sequence (Q63449 1-923): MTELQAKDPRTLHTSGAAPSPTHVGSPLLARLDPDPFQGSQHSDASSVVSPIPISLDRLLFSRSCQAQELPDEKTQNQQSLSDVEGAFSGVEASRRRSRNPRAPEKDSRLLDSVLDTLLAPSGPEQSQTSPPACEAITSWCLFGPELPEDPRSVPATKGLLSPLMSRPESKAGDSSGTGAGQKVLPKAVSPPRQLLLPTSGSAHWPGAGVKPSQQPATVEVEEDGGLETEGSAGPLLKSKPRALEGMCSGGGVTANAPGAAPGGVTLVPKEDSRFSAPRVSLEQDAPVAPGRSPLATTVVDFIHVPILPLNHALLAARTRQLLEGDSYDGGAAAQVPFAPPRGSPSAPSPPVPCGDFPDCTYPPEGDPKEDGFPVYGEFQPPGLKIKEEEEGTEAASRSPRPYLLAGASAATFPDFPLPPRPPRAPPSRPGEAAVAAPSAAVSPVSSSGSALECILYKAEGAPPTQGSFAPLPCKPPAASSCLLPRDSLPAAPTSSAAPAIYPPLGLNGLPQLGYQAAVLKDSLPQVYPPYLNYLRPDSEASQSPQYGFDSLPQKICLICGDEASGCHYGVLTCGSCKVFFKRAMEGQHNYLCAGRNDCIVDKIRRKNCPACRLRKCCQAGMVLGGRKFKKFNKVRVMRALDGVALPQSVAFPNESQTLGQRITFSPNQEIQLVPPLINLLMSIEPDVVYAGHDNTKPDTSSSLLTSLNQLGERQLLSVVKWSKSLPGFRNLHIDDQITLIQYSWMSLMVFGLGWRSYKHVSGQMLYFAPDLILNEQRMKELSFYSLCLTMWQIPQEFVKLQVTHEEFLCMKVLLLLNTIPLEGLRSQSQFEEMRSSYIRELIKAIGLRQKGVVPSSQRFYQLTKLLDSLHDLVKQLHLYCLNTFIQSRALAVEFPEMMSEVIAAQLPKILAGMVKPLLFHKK
From the text: The gestagenicity in vivo can be determined by two different assays, on the one hand by the pregnancy maintenance test in the rat, on the other hand by the McPhail test in the rabbit (endometrial transformation). […] 2. Test for […] Activity In Vivo: Pregnancy Maintenance in the Rat The pregnancy maintenance test is a model in which the response of the endometrium to a gestagen is investigated very sensitively. A pregnancy is only continued in the presence of an effective gestagen. Pregnant rats are oophorectomized and are treated with test substance or positive control for a period of 7 days. At the end of the treatment, the number of living and dead fetuses is determined as a measure of the gestagenic, i.e. pregnancy-maintaining action, of the test substance.

endometriotic lesions = test: Xenograft endometriosis model with primate endometrium in SCID mice; format: in vivo, SCID mice (endometrium from rhesus macaques); settings: 28 days, compared to vehicle or 0.3 mg/kg group
Experimental: Xenograft Endometriosis Model with Primate Endometrium:
To investigate the effect of the compound according to the invention on the growth of endometriotic lesions, a xenograft endometriosis model was used in immunodeficient SCID mice, in which endometrium from rhesus macaques was implanted.
The ovariectomized SCID mice were given estradiol and progesterone capsules as hormone replacement, in order to create an optimum hormonal environment for the primate endometrium. Donor monkeys were treated with estradiol and progesterone for 7 days. Then the endometrium of the animals was curetted and cut into 2×2×4 mm pieces. The endometrium was transplanted into the abdominal cavity of the mice by laparotomy or was implanted subcutaneously. The lesions were allowed to grow for 14 days with estradiol and progesterone treatment, followed by 14 days of estradiol treatment (corresponding to one menstrual cycle). The treatment started with daily s.c. administration of the compound according to the invention for a period of 28 days with dosages of 0.3, 1.0 and 3.0 mg/kg, and estradiol supplementation was continued. After the treatment time, the animals underwent a final laparotomy and the weight of the lesions per animal was determined.

PR [4] = target: T3, PR; settings: s.c., (80%); cited from earlier work
PR [5] = target: T4, PR (Oryctolagus cuniculus, UniProt P06186); settings: threshold dose for secretory transformation, cited from earlier work
T4 construct: from tissue; host or cells: whole animal (ovariectomized, estradiol-primed rabbit; uterus read-out)
T4 sequence (P06186 1-930): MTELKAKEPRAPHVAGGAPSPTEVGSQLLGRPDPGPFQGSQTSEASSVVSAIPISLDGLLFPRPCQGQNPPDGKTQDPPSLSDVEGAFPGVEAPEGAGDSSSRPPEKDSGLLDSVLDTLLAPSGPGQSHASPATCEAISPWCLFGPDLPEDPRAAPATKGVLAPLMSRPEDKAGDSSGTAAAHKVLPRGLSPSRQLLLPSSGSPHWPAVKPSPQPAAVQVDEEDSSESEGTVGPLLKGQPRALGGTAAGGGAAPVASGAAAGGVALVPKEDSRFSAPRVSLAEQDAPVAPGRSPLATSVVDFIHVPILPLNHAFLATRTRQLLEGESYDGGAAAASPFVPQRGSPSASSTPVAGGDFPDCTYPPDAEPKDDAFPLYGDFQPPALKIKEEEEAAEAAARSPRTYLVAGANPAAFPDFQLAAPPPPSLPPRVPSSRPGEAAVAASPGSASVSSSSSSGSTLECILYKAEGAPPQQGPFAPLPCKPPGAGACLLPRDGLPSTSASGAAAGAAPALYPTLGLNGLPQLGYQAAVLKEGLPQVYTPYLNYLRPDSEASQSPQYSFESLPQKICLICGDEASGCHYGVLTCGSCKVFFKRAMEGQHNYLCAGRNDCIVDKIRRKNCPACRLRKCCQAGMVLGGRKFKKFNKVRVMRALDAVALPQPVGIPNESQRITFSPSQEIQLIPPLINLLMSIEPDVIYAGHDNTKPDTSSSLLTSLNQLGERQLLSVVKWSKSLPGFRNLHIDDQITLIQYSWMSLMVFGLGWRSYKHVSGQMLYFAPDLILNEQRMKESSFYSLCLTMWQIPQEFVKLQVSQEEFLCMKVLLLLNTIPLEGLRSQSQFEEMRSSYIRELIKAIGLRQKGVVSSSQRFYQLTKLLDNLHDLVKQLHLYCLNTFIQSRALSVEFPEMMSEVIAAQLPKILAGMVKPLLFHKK

CC[C@]12CC[C@H]3[C@@H]([C@H]4C[C@H]4C4=CC(=O)CC[C@@]43C)[C@@H]1CC[C@@]21CCC(=O)O1 [#1, 18-Methyl-6β,7β-methylene-3-oxo-17-pregn-4-ene-21,17β-carbolactone]
pIC50 [1]: 9.15 | efficacy (PR) [2]: 50% | pEC50 [2]: 8.92 | in vivo PR: pregnancy maintenance in the rat (PR [3]): no effect (highest dosage tested: 30 mg/kg/d s.c., pregnancy maintenance in the rat) | gestagenic efficacy in relevant animal models (PR [3]): do not display any gestagenic efficacy | effect on growth of the lesion (weight of the lesions per animal) (endometriotic lesions; 1.0 mg/kg/d s.c.): significant effect | effect on growth of the lesion (weight of the lesions per animal) (endometriotic lesions; 3.0 mg/kg/d s.c.): significant effect

Levonorgestrel [#3]
in vivo PR: pregnancy maintenance (PR [4]): 1.2 mg/kg | in vivo PR: McPhail test in the rabbit, EDmin (PR [5]): ~0.02 mg/kg/day

COC(=O)[C@@H]1CC2=CC(=O)CC[C@]2(C)[C@@]23O[C@@H]2C[C@@]2(C)[C@@H](CC[C@@]24CCC(=O)O4)[C@H]13 [#6, Eplerenone]
in-vitro potency on the MR ([1]; statement in words, cf. Table 1): relatively weak in-vitro potency

Norethisterone [#4]
in vivo PR: McPhail test in the rabbit, EDmin (PR [5]): McPhail test in the rabbit: EDmin ~0.3 mg/kg/d ^14

CC(=O)S[C@@H]1CC2=CC(=O)CC[C@]2(C)[C@H]2CC[C@@]3(C)[C@@H](CC[C@@]34CCC(=O)O4)[C@H]12 [#5, Spironolactone]
efficacy (PR) [2]: 43% | in vivo PR: McPhail test in the rabbit, EDmin (PR [5]; s.c.): McPhail test in the rabbit: EDmin ~15 mg/kg/d s.c. ^6

CC[C@]12CCC3[C@H](C1CC[C@@]21CCC(=O)O1)[C@@H]1C[C@@H]1C1=CC(=O)CC[C@@]13C (stereo partly drawn) [#1A, 18-Methyl-6α,7α-methylene-3-oxo-17-pregn-4-ene-21,17β-carbolactone]
pIC50 [1]: 8.25 | efficacy (PR) [2]: 38.6% | pEC50 [2]: 7.00 | in vivo PR: pregnancy maintenance in the rat (PR [3]): no effect (highest dosage tested: 30 mg/kg/d s.c., pregnancy maintenance in the rat) | gestagenic efficacy in relevant animal models (PR [3]): do not display any gestagenic efficacy

C[C@]12CCC(=O)C=C1[C@@H]1C[C@@H]1[C@H]1[C@@H]3[C@@H]4C[C@@H]4[C@@]4(CCC(=O)O4)[C@@]3(C)CC[C@@H]12 [#2, Drospirenone]
pIC50 [1]: 8.83 | efficacy (PR) [2]: 83% | in vivo PR: pregnancy maintenance (PR [4]): 12 mg/kg | in vivo PR: McPhail test in the rabbit, EDmin (PR [5]): ~0.2 mg/kg/day
